Experimental findings from publication PMC9862597, “Anti-Colorectal Cancer Effects of a Novel Camptothecin Derivative PCC0208037 In Vitro and In Vivo” (Pharmaceuticals, 2022) are described below.

Broadly, the Cmax is the peak of the concentration-time curve. The Tmax is the time from dosing to the highest level. As a reminder, the half-life is the time in which the quantity being followed falls by half. Read a high half-life as slow decline.

The conditions of series [1]: 0.25 h and 1 h after single i.v. injection.
Protocol: Then, 0.25 h and 1 h after the injection, the colorectal and tumor tissue were removed, rinsed with saline, and blotted dry.
The next series concerns LS180 xenograft tumor. The series can be described thus: Subcutaneous LS180 xenograft model. The class given is in vivo, nude mice. Particulars: for tumor inhibition rate (tumor weight): 15 d. Here is the method:
To establish xenograft tumor models, RPMI 1640 and Matrigel were mixed at a 1:1 ratio. Colorectal cancer cells (LS180: 5 × 10^6 cells) were added to 0.1 mL of the mixture, and male nude mice were subcutaneously injected with colorectal cancer cells on the right side. […] Tumor volume and animal weight were measured every 3 days and continued until the end of the experiments. All mice were euthanized by cervical dislocation at the end of the experiment, and the xenograft tumors were removed and weighed.
Figure 8 Anti-tumor effect of PCC0208037 in the LS180 xenograft tumor model. (A) Representative tumors removed after the last treatment in each treatment group. (B) Body weight gain curves of mice bearing an LS180 xenograft tumor. (C) Tumor weights in the different groups of mice after 15 d of treatment.

A further series concerns LS180 cells. The series can be described thus: Flow cytometry cell cycle and apoptosis assay. It is filed as cell-based. Particulars: LS180, 24, 48 and 72 h. On the procedure: Cell cycle analysis and an Apoptosis Assessment were performed using flow cytometry. LS180 cells were seeded in 6-well plates at a density of 1 × 10^5 cells per well for 12 h, and then different concentrations of PCC0208037 were added for 24, 48, and 72 h, respectively. Cells were stained with PI- or PI/FITC-labeled annexin, and the effects of PCC0208037 on cell cycle progression and apoptosis were analyzed by flow cytometry.
Figure 5 PCC0208037 induced G2/M phase arrest and apoptosis in LS180 cells. (A) Cells were treated with multiple concentrations of PCC0208037 for 24, 48, and 72 h and then analyzed by flow cytometry with PI staining. (B). Cells were treated with multiple concentrations of PCC0208037 for 24, 48, and 72 h and then analyzed by flow cytometry with annexin VeFITC staining. The data were expressed as the mean ± SD (n = 3). * p < 0.05 as compared to the control.

Series [2] is described as follows: Pharmacokinetic study, single intravenous dose. On the procedure:
Blood samples were collected at 0.083 h, 0.25 h, 0.5 h, 1 h, 2 h, 4 h, 8 h, and 12 h after administration. Plasma was prepared after centrifugation at 6000× g for 5 min and then stored at −20 °C for further analysis.

The test system of another series is LS180 and HCT116 cells. The series can be described thus: Cell growth curve assay. It is filed as cell-based. To be noted: 0.001, 0.003 µmol/L, counts over 6 days. On the procedure: Cell proliferation was examined by a cell growth curve assay and a clone formation assay. Colorectal cancer cells (LS180 and HCT116 cells) were plated onto six-well plates at a density of 8000 cells per well. […] The number of cells was measured 24 h after the drug treatments. Growth curves were generated from cell counts over 6 consecutive days. For the clone formation assay, colorectal cancer cells (LS180 and HCT116 cells) were plated onto six-well plates at a density of 800 cells per well. […] Cells were then incubated with designated concentrations of PCC0208037. Fourteen days later, cells were stained with a crystal violet solution, and clones were counted.
Figure 2 Effect of PCC0208037 on cell growth. (A) Cell growth curves of LS180 cells under different treatments. (B) Cell growth curves of HCT116 cells under different treatments. The data were expressed as the mean ± SD (n = 3). * p < 0.05 as compared to the control.

The mark [3] stands for this setting: BALB/c, mouse, in vivo, iv, 10.65 mg/kg.
Where [4] appears, read: PCC0208037 in plasma, 10.65 mg/kg PCC0208037 i.v., n = 3.

With `CCc1c2c(nc3ccc(O)cc13)-c1cc3c(c(=O)n1C2)COC(=O)[C@@]3(CC)OC(=O)Nc1nc(=O)n([C@@H]2O[C@H](C)[C@@H](O)[C@H]2O)cc1F` [PCC0208037], the “concentration in the colorectal tissue compared with CPT-11” value in series [1] is on record as “significantly lower than CPT-11”. The “tumor inhibition rate (tumor weight)” value in the series on LS180 xenograft tumor (5 mg/kg i.v. once every 3 days) worked out at 29.9%. Further, the “tumor inhibition rate (tumor weight)” value in the series with LS180 xenograft tumor (10 mg/kg i.v. once every 3 days) was 37.2%. Also, the “tumor inhibition rate (tumor weight)” value in the series with LS180 xenograft tumor (20 mg/kg i.v. once every 3 days) was found to be 50.8%. Moreover, the “effect on body weight of tumor-bearing mice” value with LS180 xenograft tumor (PCC0208037 5, 10, 20 mg/kg, CPT-11 10 mg/kg, i.v. once every 3 days) was “without impacting the normal feeding and body weight gain”. Moreover, the “percentage of apoptotic cells” value in the series on LS180 cells (FITC annexin V staining) is “significantly increased the percentage of apoptotic cells”. The “ratio of cells in the G2/M phase” value in the series on LS180 cells (PI staining) is given as “significantly increased the ratio of the cells in the G2/M phase”. In addition, in series [2] (setting [3]), the highest level (Cmax) was 137 µg/mL, the Tmax came to 11.4 ± 4.2 min and the half-life is 70.2 ± 0.9 min. Moreover, in series [2] (setting [4]), the AUCinf is reported as 68,388.4 ± 17,991.1 H * ng/mL and the AUClast was 68,292.5 ± 18,078.2 H * ng/mL. Also, in the series on LS180 and HCT116 cells, the “cell growth ability (cell growth curve)” value was “decreased the cell growth ability in a dose-dependent manner”.
